Reference: PubChem BioAssay AID2060885 (Molecular Pharmacology Branch, DTP, NCI, 2025)

Tested on: NCI-H23 complex spheroids with HUVEC/MSC, viability
Assay: Anticancer human tumor NCI-H23 cell line growth inhibition [RAS];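 note: spheroids exposed to compound for 7 days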;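 for viability, T/C: 100% = DMSO vehicle control viability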
Details: for IC50: curve of first compound; for viability, T/C: stronger effect = lower value; active = viability on the fitted dose curve at most 10% of control; inactive = the rest
Summary of the method: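 Agents were tested in combination matrices in half-log decrements from a top concentration at or near clinical Cmax (10 microM if undetermined). Targets were multi-cell spheroids of tumour lines plus HUVEC and MSC stromal cells.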

[1] = second compound 0.000949 µM, first compound 0.000949 µM
[2] = second compound 0.000949 µM, first compound 0.003 µM
[3] = second compound 0.000949 µM, first compound 0.00949 µM
[4] = second compound 0.000949 µM, first compound 0.03 µM
[5] = second compound 0.000949 µM, first compound 0.0949 µM
[6] = second compound 0.000949 µM, first compound 0.3 µM
[7] = second compound 0.003 µM, first compound 0.000949 µM
[8] = second compound 0.003 µM, first compound 0.003 µM
[9] = second compound 0.003 µM, first compound 0.00949 µM
[10] = second compound 0.003 µM, first compound 0.03 µM
[11] = second compound 0.003 µM, first compound 0.0949 µM
[12] = second compound 0.003 µM, first compound 0.3 µM
[13] = second compound 0.00949 µM, first compound 0.000949 µM
[14] = second compound 0.00949 µM, first compound 0.003 µM
[15] = second compound 0.00949 µM, first compound 0.00949 µM
[16] = second compound 0.00949 µM, first compound 0.03 µM
[17] = second compound 0.00949 µM, first compound 0.0949 µM
[18] = second compound 0.00949 µM, first compound 0.3 µM
[19] = second compound 0.03 µM, first compound 0.000949 µM
[20] = second compound 0.03 µM, first compound 0.003 µM
[21] = second compound 0.03 µM, first compound 0.00949 µM
[22] = second compound 0.03 µM, first compound 0.03 µM
[23] = second compound 0.03 µM, first compound 0.0949 µM
[24] = second compound 0.03 µM, first compound 0.3 µM
[25] = second compound 0.0949 µM, first compound 0.000949 µM
[26] = second compound 0.0949 µM, first compound 0.003 µM
[27] = second compound 0.0949 µM, first compound 0.00949 µM
[28] = second compound 0.0949 µM, first compound 0.03 µM
[29] = second compound 0.0949 µM, first compound 0.0949 µM
[30] = second compound 0.0949 µM, first compound 0.3 µM
[31] = second compound 0.3 µM, first compound 0.000949 µM
[32] = second compound 0.3 µM, first compound 0.003 µM
[33] = second compound 0.3 µM, first compound 0.00949 µM
[34] = second compound 0.3 µM, first compound 0.03 µM
[35] = second compound 0.3 µM, first compound 0.0949 µM
[36] = second compound 0.3 µM, first compound 0.3 µM

CC1(C)CCC(Nc2ncc(C(F)(F)F)c(-c3c[nH]c4c(P(C)(C)=O)c(C#N)ccc34)n2)CN1 (centres undefined) + CCn1c(-c2cccnc2C(C)OC)c2c3cc(ccc31)N1CCOC(CC(NC(=O)C(C(C)C)N(C)C(=O)C3(F)CCN(C(=O)C#CC(C)(C)N(C)C)CC3)C(=O)N3CCCC(N3)C(=O)OCC(C)(C)C2)C1
< 0.949 nM: IC50 (second compound 0.000949 µM) | IC50 (second compound 0.003 µM) | IC50 (second compound 0.00949 µM) | IC50 (second compound 0.03 µM) | IC50 (second compound 0.0949 µM) | IC50 (second compound 0.3 µM)
inactive: viability, T/C [1] 26% | viability, T/C [2] 21.2% | viability, T/C [3] 14% | viability, T/C [4] 16.1% | viability, T/C [5] 14.7% | viability, T/C [6] 11.3% | viability, T/C [7] 22.4% | viability, T/C [8] 17.4% | viability, T/C [9] 15.5% | viability, T/C [10] 15.2% | viability, T/C [11] 15% | viability, T/C [12] 11.6% | viability, T/C [13] 23.9% | viability, T/C [14] 17.5% | viability, T/C [15] 15.9% | viability, T/C [16] 15% | viability, T/C [17] 13.1% | viability, T/C [18] 13.2% | viability, T/C [19] 21.9% | viability, T/C [20] 19.2% | viability, T/C [21] 17.8% | viability, T/C [22] 15.7% | viability, T/C [23] 12.4% | viability, T/C [24] 13.3% | viability, T/C [25] 21.8% | viability, T/C [26] 19.2% | viability, T/C [27] 16.8% | viability, T/C [28] 13.8% | viability, T/C [29] 11.8% | viability, T/C [30] 13.2% | viability, T/C [31] 18.8% | viability, T/C [32] 17.9% | viability, T/C [33] 15.3% | viability, T/C [34] 12.3% | viability, T/C [35] 11.3% | viability, T/C [36] 13.7%

CCc1c2c(nc3ccc(O)cc13)-c1cc3c(c(=O)n1C2)COC(=O)[C@]3(O)CC + CCn1c(-c2cccnc2C(C)OC)c2c3cc(ccc31)N1CCOC(CC(NC(=O)C(C(C)C)N(C)C(=O)C3(F)CCN(C(=O)C#CC(C)(C)N(C)C)CC3)C(=O)N3CCCC(N3)C(=O)OCC(C)(C)C2)C1
< 0.949 nM: IC50 (second compound 0.000949 µM) | IC50 (second compound 0.003 µM) | IC50 (second compound 0.00949 µM) | IC50 (second compound 0.03 µM) | IC50 (second compound 0.0949 µM) | IC50 (second compound 0.3 µM)
inactive: viability, T/C [1] 27.9% | viability, T/C [2] 13.4% | viability, T/C [7] 23.4% | viability, T/C [8] 12.6% | viability, T/C [13] 27.1% | viability, T/C [14] 11.9% | viability, T/C [19] 25.5% | viability, T/C [20] 12.3% | viability, T/C [25] 23.6% | viability, T/C [31] 18.7%
active: viability, T/C [3] 3.4% | viability, T/C [4] 2.46% | viability, T/C [5] 1.53% | viability, T/C [6] 0.79% | viability, T/C [9] 3.29% | viability, T/C [10] 1.82% | viability, T/C [11] 1.53% | viability, T/C [12] 0.91% | viability, T/C [15] 3.95% | viability, T/C [16] 2.01% | viability, T/C [17] 1.54% | viability, T/C [18] 0.96% | viability, T/C [21] 3.53% | viability, T/C [22] 2.17% | viability, T/C [23] 1.25% | viability, T/C [24] 0.77% | viability, T/C [26] 8.82% | viability, T/C [27] 3.56% | viability, T/C [28] 1.45% | viability, T/C [29] 0.88% | viability, T/C [30] 0.84% | viability, T/C [32] 7.22% | viability, T/C [33] 2.67% | viability, T/C [34] 1.54% | viability, T/C [35] 1.11% | viability, T/C [36] 1.43%
